# Results: US10287252B2, “Inhibitors of tryptophan-2,3-dioxygenase or indoleamine-2,3-dioxygenase” (IOmet Pharma Ltd., priority 2014, dated 2019)
# Assays:
# TDO = TDO (Homo sapiens, UniProt P48775); experiment: A172 Kynurenine cell based assay; parameters: This assay utilised cancer cells which expressed either TDO or IDO; endogenous in cells; host or cells: A172 (human glioblastoma); settings: A172 (human glioblastoma) cells, 500 μM L-tryptophan, 48 hours, kynurenine by Erhlich's reagent; for IC50: read-out: A172 Kynurenine cell based assay pIC50 (converted)
# TDO, sequence (P48775 whole entry): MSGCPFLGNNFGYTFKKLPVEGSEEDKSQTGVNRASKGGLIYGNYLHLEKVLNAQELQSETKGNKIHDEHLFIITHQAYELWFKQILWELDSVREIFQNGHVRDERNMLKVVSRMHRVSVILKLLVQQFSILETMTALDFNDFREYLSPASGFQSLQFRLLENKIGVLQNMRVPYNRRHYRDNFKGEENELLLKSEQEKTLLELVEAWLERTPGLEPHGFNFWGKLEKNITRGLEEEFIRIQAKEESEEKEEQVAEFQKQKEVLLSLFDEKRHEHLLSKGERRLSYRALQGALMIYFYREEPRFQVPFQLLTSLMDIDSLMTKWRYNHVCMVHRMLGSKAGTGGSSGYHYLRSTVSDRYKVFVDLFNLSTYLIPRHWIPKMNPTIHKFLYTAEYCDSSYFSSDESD
# Protocol: (§1) Exemplary compounds of the invention were prepared, and tested to determine their effect as TDO and/or IDO inhibitors. Two different assays were employed: 1. a cell-based assay for detecting the effect of test compounds on kynurenine production in two different cancer cell types. This assay utilised cancer cells which expressed either TDO or IDO and as such was used as a means of testing compound activity at these two enzymes in a cell-based context. 2. a TDO and IDO biochemical coupled assay which utilised recombinantly produced and purified TDO and IDO enzymes in combination with the enzyme formamidase. This coupled enzyme system allowed conversion of N-formylkynurenine produced by TDO or IDO activity to kynurenine which was then quantified by fluorescence following addition of Erhlich's Reagent The protocols for these are set out below.
# (§2) Cell Based Assay for Detection of Kynurenine Produced by TDO and/or IDO
# (§3) A172 (human glioblastoma) and SKOV3 (human ovarian adenocarcinoma) cells were seeded in a 96 well plate at 30,000 or 40,000 cells per well respectively in phenol red-free RPMI supplemented with 10% FCS, 2 mM L-glutamine and 500 μM L-tryptophan. IDO expression was induced in the SKOV3 cells by the addition of 500 ng/ml IFN-γ. Cells were incubated at 37° C. with or without the addition of test compound. After 48 hours, the cells were removed by centrifugation and Erhlich's reagent was added to the supernatant. The Erhlich's reagent was incubated for 5 minutes before the absorbance was read at 490 nm.
# IDO = IDO (Homo sapiens, UniProt P14902); experiment: SKOV3 Kynurenine cell based assay; parameters: IDO expression was induced in the SKOV3 cells by the addition of 500 ng/ml IFN-γ; endogenous in cells; host or cells: SKOV3 (human ovarian adenocarcinoma), induced with IFN-γ; settings: SKOV3 (human ovarian adenocarcinoma) cells, IDO induced by 500 ng/ml IFN-γ, 500 μM L-tryptophan, 48 hours; for IC50: read-out: SKOV3 Kynurenine cell based assay pIC50 (converted)
# IDO, sequence (P14902 whole entry): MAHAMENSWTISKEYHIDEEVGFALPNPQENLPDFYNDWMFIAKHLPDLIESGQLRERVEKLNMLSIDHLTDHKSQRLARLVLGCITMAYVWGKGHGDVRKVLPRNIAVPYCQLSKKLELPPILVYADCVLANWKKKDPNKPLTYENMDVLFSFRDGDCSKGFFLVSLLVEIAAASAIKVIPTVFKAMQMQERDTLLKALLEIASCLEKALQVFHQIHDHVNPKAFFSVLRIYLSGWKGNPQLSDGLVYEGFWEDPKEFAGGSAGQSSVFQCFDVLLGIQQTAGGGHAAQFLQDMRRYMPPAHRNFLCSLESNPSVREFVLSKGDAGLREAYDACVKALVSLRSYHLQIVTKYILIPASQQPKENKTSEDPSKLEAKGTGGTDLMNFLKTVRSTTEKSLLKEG
# Protocol: as §1, §2, §3
Compound,A172 Kynurenine cell based assay pIC50 (TDO),SKOV3 Kynurenine cell based assay pIC50 (IDO),IC50 (TDO) [µM],IC50 (IDO) [µM]
CC(C)CS(=O)(=O)N(c1cccc2cnccc12)S(=O)(=O)CC(C)C [Compound 5],+/− (+/− = pIC50 <4.00),+ (+ = pIC50 4.00-4.49),–,–
O=C(Nc1cccc2cnccc12)c1ccccc1 [Compound 7],+/− (+/− = pIC50 <4.00),+ (+ = pIC50 4.00-4.49),–,–
CN1CCOC(C(=O)Nc2cccc3cnccc23)C1 (stereo not shown) [Compound 8],++ (++ = pIC50 4.50-5.49),++ (++ = pIC50 4.50-5.49),–,–
Cc1ccc(S(=O)(=O)Nc2cccc3cnccc23)cc1 [Compound 10],+/− (+/− = pIC50 <4.00),++ (++ = pIC50 4.50-5.49),–,–
O=S(=O)(Nc1cccc2cnccc12)c1ccccc1Cl [Compound 11],++ (++ = pIC50 4.50-5.49),++ (++ = pIC50 4.50-5.49),–,–
O=S(=O)(Nc1cccc2cnccc12)c1ccc(Cl)cc1 [Compound 12],++ (++ = pIC50 4.50-5.49),++ (++ = pIC50 4.50-5.49),–,–
O=S(=O)(Nc1cccc2cnccc12)c1cccc(Cl)c1 [Compound 13],++ (++ = pIC50 4.50-5.49),++ (++ = pIC50 4.50-5.49),–,–
CCCS(=O)(=O)Nc1cccc2cnccc12 [Compound 15],++ (++ = pIC50 4.50-5.49),+/− (+/− = pIC50 <4.00),–,–
Cc1cccc(S(=O)(=O)Nc2cccc3cnccc23)c1 [Compound 17],+++ (+++ = pIC50 ≥5.50),++ (++ = pIC50 4.50-5.49),–,–
COc1ccc(S(=O)(=O)Nc2cccc3cnccc23)cc1OC [Compound 18],+/− (+/− = pIC50 <4.00),+ (+ = pIC50 4.00-4.49),–,–
O=S(=O)(Nc1cccc2cnccc12)c1ccc2c(c1)OCCO2 [Compound 19],+++ (+++ = pIC50 ≥5.50),+++ (+++ = pIC50 ≥5.50),–,–
O=S(=O)(Nc1cccc2cnccc12)c1ccc(-c2ccccc2)cc1 [Compound 20],+++ (+++ = pIC50 ≥5.50),+++ (+++ = pIC50 ≥5.50),–,–
O=S(=O)(Nc1cccc2cnccc12)c1ccccc1F [Compound 21],++ (++ = pIC50 4.50-5.49),++ (++ = pIC50 4.50-5.49),–,–
O=S(=O)(Nc1cccc2cnccc12)c1ccc(F)cc1 [Compound 22],+++ (+++ = pIC50 ≥5.50),+ (+ = pIC50 4.00-4.49),–,–
O=S(=O)(Nc1cccc2cnccc12)c1ccc(F)cc1F [Compound 23],+/− (+/− = pIC50 <4.00),+ (+ = pIC50 4.00-4.49),–,–
CC(=O)Nc1ccc(S(=O)(=O)Nc2cccc3cnccc23)cc1 [Compound 24],+/− (+/− = pIC50 <4.00),++ (++ = pIC50 4.50-5.49),–,–
O=S(=O)(Nc1cccc2cnccc12)c1cccc(OC(F)F)c1 [Compound 26],+++ (+++ = pIC50 ≥5.50),++ (++ = pIC50 4.50-5.49),–,–
Cc1ccccc1S(=O)(=O)Nc1cccc2cnccc12 [Compound 27],+++ (+++ = pIC50 ≥5.50),++ (++ = pIC50 4.50-5.49),–,–

# Next, values leading:
A172 Kynurenine cell based assay pIC50 (TDO),SKOV3 Kynurenine cell based assay pIC50 (IDO),IC50 (TDO) [µM],IC50 (IDO) [µM],Compound
–,–,≤ 3.16,3.24 to 31.6,CN1CCOc2cc(S(=O)(=O)Nc3cccc4cnccc34)ccc21 [Compound 28]
++ (++ = pIC50 4.50-5.49),++ (++ = pIC50 4.50-5.49),–,–,O=S(=O)(Nc1cccc2cnccc12)c1ccc(Cl)s1 [Compound 29]
+/− (+/− = pIC50 <4.00),+ (+ = pIC50 4.00-4.49),–,–,O=S(=O)(Nc1cccc2cnccc12)c1cccc2cccnc12 [Compound 30]
+/− (+/− = pIC50 <4.00),+++ (+++ = pIC50 ≥5.50),–,–,CC(C)Oc1ccc(S(=O)(=O)Nc2cccc3cnccc23)cc1 [Compound 31]
+/− (+/− = pIC50 <4.00),+ (+ = pIC50 4.00-4.49),–,–,O=C(Nc1ccc2cnccc2c1)c1ccccc1 [Compound 32]
+/− (+/− = pIC50 <4.00),+ (+ = pIC50 4.00-4.49),–,–,O=C(Nc1cncc2ccccc12)c1ccccc1 [Compound 33]
+/− (+/− = pIC50 <4.00),+ (+ = pIC50 4.00-4.49),–,–,CS(=O)(=O)c1ccc(S(=O)(=O)Nc2cccc3cnccc23)cc1 [Compound 34]
+++ (+++ = pIC50 ≥5.50),++ (++ = pIC50 4.50-5.49),–,–,COc1ccc(S(=O)(=O)Nc2cccc3cnccc23)cc1 [Compound 35]
+/− (+/− = pIC50 <4.00),+ (+ = pIC50 4.00-4.49),–,–,N#Cc1ccccc1S(=O)(=O)Nc1cccc2cnccc12 [Compound 36]
+ (+ = pIC50 4.00-4.49),+/− (+/− = pIC50 <4.00),–,–,CC(C)S(=O)(=O)Nc1cccc2cnccc12 [Compound 37]
+ (+ = pIC50 4.00-4.49),+ (+ = pIC50 4.00-4.49),–,–,O=S(=O)(Nc1cncc2ccccc12)c1ccccc1 [Compound 38]
+/− (+/− = pIC50 <4.00),+ (+ = pIC50 4.00-4.49),–,–,O=S(=O)(Nc1ccc2cnccc2c1)c1ccccc1 [Compound 39]
+ (+ = pIC50 4.00-4.49),+ (+ = pIC50 4.00-4.49),–,–,Nc1nccc2c(NS(=O)(=O)c3ccccc3)cccc12 [Compound 40]
+/− (+/− = pIC50 <4.00),+ (+ = pIC50 4.00-4.49),–,–,CC(=O)Nc1cc2c(NS(=O)(=O)c3ccccc3)cccc2cn1 [Compound 41]
+ (+ = pIC50 4.00-4.49),+ (+ = pIC50 4.00-4.49),–,–,CN(c1ccccc1)S(=O)(=O)c1cccc2cnccc12 [Compound 42]
+/− (+/− = pIC50 <4.00),+ (+ = pIC50 4.00-4.49),–,–,O=C(Nc1ccccc1)c1cccc2cnccc12 [Compound 43]
+ (+ = pIC50 4.00-4.49),++ (++ = pIC50 4.50-5.49),–,–,O=S(=O)(Nc1ccccc1)c1cccc2cnccc12 [Compound 44]
–,–,> 100,32.4 to 100,"CS(=O)(=O)N1CCN(c2cccc3cnccc23)CC1 [Compound 45, 5-(4-(methylsulfonyl)piperazin-1-yl)isoquinoline]"
+ (+ = pIC50 4.00-4.49),++ (++ = pIC50 4.50-5.49),–,–,O=S(=O)(Nc1ccc(Cl)cc1)c1cccc2cnccc12 [Compound 46]
++ (++ = pIC50 4.50-5.49),++ (++ = pIC50 4.50-5.49),–,–,O=S(=O)(Nc1ccc(-c2ccccc2)cc1)c1cccc2cnccc12 [Compound 47]
+/− (+/− = pIC50 <4.00),+ (+ = pIC50 4.00-4.49),–,–,CC(=O)N1CCN(c2cccc3cnccc23)CC1 [Compound 48]
+/− (+/− = pIC50 <4.00),+ (+ = pIC50 4.00-4.49),–,–,O=S(=O)(NC1CCCc2cnccc21)c1ccccc1 (stereo not shown) [Compound 49]
+/− (+/− = pIC50 <4.00),+++ (+++ = pIC50 ≥5.50),–,–,O=S(=O)(NC1CCCc2cnccc21)c1ccc(-c2ccccc2)cc1 (stereo not shown) [Compound 50]
+/− (+/− = pIC50 <4.00),++ (++ = pIC50 4.50-5.49),–,–,O=S(=O)(NC1CCCc2cnccc21)c1ccc(Cl)cc1 (stereo not shown) [Compound 51]
–,–,> 100,≤ 3.16,CC(C)Oc1ccc(S(=O)(=O)NC2CCCc3cnccc32)cc1 (stereo not shown) [Compound 52]
+ (+ = pIC50 4.00-4.49),+ (+ = pIC50 4.00-4.49),–,–,CC(C)Oc1ccc(S(=O)(=O)Nc2cccc3ccncc23)cc1 [Compound 53]
